Test results reported in patent US20180280447A1, “PLACENTA-DERIVED CELLS EXCRETING C3 OR C1R COMPLEMENT AND COMPOSITION CONTAINING SAME” (SUNGKWANG MEDICAL FOUNDATION, priority 2014, published 2018).

How the values were obtained:
Assay type in all cases: cell-based, human
hPDCs [1] = assay: Notch/DLL1 signaling in nerve/neuron induction of hPDCs
Description: (§1) Quantitative RT-PCR: Total RNA was isolated from cells using TRizol (Invitrogen). cDNA was synthesized from 1 μg of total RNA using Superscript II reverse transcriptase, Oligo-d(T) 12-18 primer, DTT, and dNTPs according to the manufacturer's protocol. RT-PCR was performed by using a Pre-Mix kit (Bioneer). A PCR product was electrophoresed on a 2% agarose gel using RedGel (Biotium, Inc), and visualized by a UV-transilluminator.
To suppress FGF4 downstream signaling, hPDCs were cultured for 1 hour in a 10% FBS-supplemented alpha-MEM medium pretreated with or without 5 μM of ERK-inhibiting U0126 or 10 μM of JNK-inhibiting SP600125 (Calbiochem) in dimethyl sulfoxide (DMSO), and then stimulated with 25 ng/mL FGF4 for 3 days. To analyze suppression of Notch signaling, […] were in cultured for 1 hour in a 10% FBS-supplemented alpha-MEM medium pretreated with or without 50 μM of Notch-inhibiting DAPT (N—[N-(3,5-difluorophenacetyl)-1-alanyl]-S-phenylglycine t-butyl ester, Sigma), and then stimulated with 25 ng/mL FGF4 for 3 days.

hPDCs [2] = assay: Suppression of FGF4 downstream signaling (ERK, JNK) in hPDCs
Description: […] To analyze suppression of Notch signaling, ASCs were in cultured for 1 hour in a 10% FBS-supplemented alpha-MEM medium pretreated with or without 50 μM of Notch-inhibiting DAPT (N—[N-(3,5-difluorophenacetyl)-1-alanyl]-S-phenylglycine t-butyl ester, Sigma), and then stimulated with 25 ng/mL FGF4 for 3 days.
Cells were first fixed in 4% PFA at room temperature for 15 minutes, and then permeabilized with 0.1% Triton X-100 for 20 minutes, followed by blocking with 10% normal goat serum (NGS). The following primary antibodies were used: anti-neuron classIII β-tubulin (Tuji), -Nestin (Covance), -Ki-67 (Novocastra), -SOX2, -NANOG, KLF4, Brachyury/Bry (all from Abcam), OCT3/4, GATA4 (all from Santa Cruz). Cells were incubated with Alexa Fluor 488 or 594-conjugated antibody (Molecular Probes) at room temperature for 1 hour, and to examine nuclei, cells were stained with 4′, 6-diamino-2-phenylindole (DAPI, 2 mg/mL in PBS). A cover-slip was sealed to a glass slide. Cells were visualized by a fluorescence microscope or a confocal fluorescence microscope (LSM 510 confocal microscope, Zeiss).

TGF-β1 mRNA = assay: TGF-β1 gene silencing by siRNA in PDCs
Excerpt: Using the human nucleotide sequences for TGF-β1 mRNA obtained from GenBank (GI:260655621) and referring to the design strategy of siRNA, two pairs of 21-bp reverse repeat sequences targeting TGF-β1 mRNA were synthesized by Bioneer (Seoul, Korea). siRNA targeted forward: 5′. CAGAGUACACACAGCAUAU-3′(1243-1261) (SEQ ID NO: 31); reverse, 5′-AUAUGCUGUGUGUACUCUG-3′(1261-1243) (SEQ ID NO: 32) of the TGF-β coding sequence. siRNA (at a final concentration of 100 pmol) was transfected with Upofectamine 2000 (Invitrogen, Gaithersburg, Md.) according to the manufacturer's instructions. The efficacy of TGF-β1 gene silencing was assessed by quantitative real-time PCR and Western blotting.

hPDCs [3] = assay: Neural induction of hPDCs by FGF4; conditions: 3 days
Description: as §1
Immunoblotting analysis: Cells were washed with cold PBS, and lysed with a lysis buffer containing a protease inhibitor cocktail (Pierce). A total cell lysate was normalized with a Bradford reagent (Bio-Rad), and 30˜50 μg of the cell lysate was applied to 8˜12% SDS-PAGE and transferred onto a PVDF membrane (Milipore). The membrane was blocked with TBS-T (50 mM Tris-HCl, pH 7.6, 150 mM NaCl, 0.05% Tween-20) containing 5% skim milk (Becton Dickinson), and examined with respective antibodies. An immune reaction was performed by using an ECL Western Blotting system (Millipore, Amersham). […]
Cells were first fixed in 4% PFA at room temperature for 15 minutes, and then permeabilized with 0.1% Triton X-100 for 20 minutes, followed by blocking with 10% normal goat serum (NGS). […] Cells were visualized by a fluorescence microscope or a confocal fluorescence microscope (LSM 510 confocal microscope, Zeiss).

## C[C@H](NC(=O)Cc1cc(F)cc(F)c1)C(=O)N[C@H](C(=O)OC(C)(C)C)c1ccccc1 [DAPT, N—[N-(3,5-difluorophenacetyl)-1-alanyl]-S-phenylglycine t-butyl ester]
hPDCs [1]; compared with DMSO-treated cells, HD culture with FGF4
  DLL1, Nestin, and TUJ1 gene expression: significantly low levels

## Oc1c2ccccc2c2c3c(cccc13)N=N2 [SP600125]
hPDCs [2]; SP600125
  % Ki-67 cells in total DAPI+ cells: 37.53±1.89%
hPDCs [2]; SP600125, FGF4, 72 hours
  Nestin+ total cells: 48.47±3.07

## N#CC(=C(/N)Sc1ccccc1N)/C(C#N)=C(\N)Sc1ccccc1N [U0126]
hPDCs [2]; 5 mM U0216
  % Ki-67+ cells in total DAPI+ cells: 64.46±2.14%
hPDCs [2]; 5 mM U0216, FGF4, 72 hours
  Nestin+ total cells: 47.61±3.46
hPDCs [2]; FGF4-treated hPDCs, immunoblotting
  Nestin protein levels: decrease in Nestin protein levels

## TGF-β siRNA: siRNA targeting TGF-β1 mRNA, SEQ ID NO: 31 and 32, synthesized by Bioneer (chain 1 CAGAGUACACACAGCAUAU; chain 2 AUAUGCUGUGUGUACUCUG; listed as RNA, chemistry not given here)
TGF-β1 mRNA; after TGF-β siRNA transfection
  PEDF and Ang-1 expressions: no changes
TGF-β1 mRNA; quantitative real-time PCR, compared with control PDCs
  decrease of TGF-β expression: 80-90%

B1: FGF4: growth factor (R&D Systems) tested for neural induction of hPDCs (protein, UniProt P08620 31-206, looked up)
Fibroblast growth factor 4: APTAPNGTLEAELERRWESLVALSLARLPVAAQPKEAAVQSGAGDYLLGIKRLRRLYCNVGIGFHLQALPDGRIGGAHADTRDSLLELSPVERGVVSIFGVASRFFVAMSSKGKLYGSPFFTDECTFKEILLPNNYNAYESYKYPGMFIALSKNGKTKKGNRVSPTMKVTHFLPRL
hPDCs [3]; 25 ng/mL FGF4 vs 10 ng/mL EGF or 10 ng/mL bFGF
  expression levels of Nestin and Musashi1: much higher
hPDCs [3]; 25 ng/mL among 10, 25, 50 ng/mL
  mRNA expression level of Nestin: highest mRNA expression level of Nestin

B2: DLL1-FLAG: recombinant DLL1 protein (protein, UniProt O00548 18-545, looked up)
extracellular domain: QVWSSGVFELKLQEFVNKKGLLGNRNCCRGGAGPPPCACRTFFRVCLKHYQASVSPEPPCTYGSAVTPVLGVDSFSLPDGGGADSAFSNPIRFPFGFTWPGTFSLIIEALHTDSPDDLATENPERLISRLATQRHLTVGEEWSQDLHSSGRTDLKYSYRFVCDEHYYGEGCSVFCRPRDDAFGHFTCGERGEKVCNPGWKGPYCTEPICLPGCDEQHGFCDKPGECKCRVGWQGRYCDECIRYPGCLHGTCQQPWQCNCQEGWGGLFCNQDLNYCTHHKPCKNGATCTNTGQGSYTCSCRPGYTGATCELGIDECDPSPCKNGGSCTDLENSYSCTCPPGFYGKICELSAMTCADGPCFNGGRCSDSPDGGYSCRCPVGYSGFNCEKKIDYCSSSPCSNGAKCVDLGDAYLCRCQAGFSGRHCDDNVDDCASSPCANGGTCRDGVNDFSCTCPPGYTGRNCSAPVSRCEHAPCHNGATCHERGHRYVCECARGYGGPNCQFLLPELPPGPAVVDLTEKLEGQGGPFPW
modifications: extracellular domain FLAG tag
notes: recombinant DLL1 protein
hPDCs [1]; three days with FGF4 in hPDC cultures
  mRNA levels of DLL1, Nestin, and TUJ1: up-regulated
